Assay results published in PMC10066365, “Nemacol is a small molecule inhibitor of C. elegans vesicular acetylcholine transporter with anthelmintic potential” (Nature Communications, 2023).
Where “and” joins values, the source holds several entries; their conditions need not be identical. Equal entries are not always repeated.

Experiments:
C. elegans = C. elegans motor phenotype scoring on solid media (Punc/jerky-unc, coiled, paralyzed), wild-type young adults; type: in vivo, Caenorhabditis elegans; settings: for atypical locomotion (number of animals) / coiled (number of animals) / no phene (number of animals) / paralyzed (number of animals) / any phene: mean % fraction of young adults exhibiting any phenotype (coiled, jerky-Unc or paralyzed): one hour; for atypical locomotion (number of animals) / coiled (number of animals) / no phene (number of animals) / paralyzed (number of animals): young adults, 20 animals per trial, single technical replicate; for any phene: mean % fraction of young adults exhibiting any phenotype (coiled, jerky-Unc or paralyzed): mean of three biological replicates; for EC50: Caenorhabditis elegans, any motor phenotype after 1 h on solid media, ± 95% CI, read-out: C. elegans - motor disruption EC50
[1] = system: Dirofilaria immitis microfilariae; assay: Dirofilaria immitis microfilariae immobility assay (DiroImager, 72 h); settings: Dirofilaria immitis microfilariae
Procedure, shortened: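 About 250 freshly purified microfilariae of the Missouri isolate per well in supplemented RPMI 1640, exposed to compound for 72 h. Motility scored by automated whole-plate optical imaging; medium with 1% DMSO as negative control.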

[2] = system: Dirofilaria immitis L3/L4; assay: Dirofilaria immitis L3/L4 motility assay (DiroImager, 72 h); settings: Dirofilaria immitis L4
Pristionchus pacificus = Pristionchus pacificus motor disruption dose-response on solid media, 1 h; settings: for mean % any phene (coiled, jerky-Unc or paralyzed): Pristionchus pacificus young adults; for mean % any phene (coiled, jerky-Unc or paralyzed) / mean % any phene: mean of three biological replicates; for EC50: Pristionchus pacificus, 1 h, read-out: P. pacificus motor disruption EC50; for mean % any phene: any phenotype (coiled, jerky-Unc or paralyzed) at one hour; for rep 1 atypical locomotion / rep 1 coiled / rep 1 no phene / rep 1 paralyzed / rep 2 atypical locomotion / rep 2 coiled / rep 2 no phene / rep 2 paralyzed / rep 3 atypical locomotion / rep 3 coiled / rep 3 no phene / rep 3 paralyzed: count of 20 animals per trial, one hour
[3] = conc 3.75, observed at one hour

## FC(F)(F)c1cccc(N2CCN(C3CCCCCC3)CC2)c1 [Nemacol-52]
C. elegans; 3.75uM
  atypical locomotion (number of animals): 14 and 12 and 10 and 8 and 15
  coiled (number of animals): 0
  no phene (number of animals): 4 and 6 and 10 and 12 and 5
  paralyzed (number of animals): 2 and 0
  any phene: mean % fraction of young adults exhibiting any phenotype (coiled, jerky-Unc or paralyzed): 64.1667%
C. elegans; 15uM
  atypical locomotion (number of animals): 12 and 7 and 8 and 10 and 13 and 9
  coiled (number of animals): 0 and 7 and 4 and 5
  no phene (number of animals): 0
  paralyzed (number of animals): 8 and 13 and 5 and 6 and 2 and 7
  any phene: mean % fraction of young adults exhibiting any phenotype (coiled, jerky-Unc or paralyzed): 100%
C. elegans; 60uM
  atypical locomotion (number of animals): 12 and 8 and 7 and 6 and 13
  coiled (number of animals): 0 and 1
  no phene (number of animals): 0
  paralyzed (number of animals): 8 and 12 and 13 and 7
  any phene: mean % fraction of young adults exhibiting any phenotype (coiled, jerky-Unc or paralyzed): 100%
C. elegans
  EC50: 3.6 µM
[1]; 0.016 µM
  % effect (motility), DIROIM MF: 0%
[1]; 0.08 µM
  % effect (motility), DIROIM MF: 0%
[1]; 0.4 µM
  % effect (motility), DIROIM MF: 0%
[1]; 2 µM
  % effect (motility), DIROIM MF: 0%
[1]; 10 µM
  % effect (motility), DIROIM MF: 0%
[2]; 2 µM
  % effect (motility), DIROIM L4: 0%
[2]; 10 µM
  % effect (motility), DIROIM L4: 0%
[2]; 50 µM
  % effect (motility), DIROIM L4: 15%
Pristionchus pacificus; [3]
  mean % any phene (coiled, jerky-Unc or paralyzed): 5%
Pristionchus pacificus; conc 15, observed at one hour
  mean % any phene (coiled, jerky-Unc or paralyzed): 21.6667%
Pristionchus pacificus; conc 60, observed at one hour
  mean % any phene (coiled, jerky-Unc or paralyzed): 97.5%
Pristionchus pacificus
  EC50: 21.7 ± 3.7 µM

## c1ccc(N2CCN(C3CCCCCCC3)CC2)cc1 [Nemacol-54]
C. elegans; 3.75uM
  atypical locomotion (number of animals): 7 and 14 and 6 and 3 and 12 and 10
  coiled (number of animals): 0
  no phene (number of animals): 11 and 4 and 14 and 17 and 8 and 10
  paralyzed (number of animals): 2 and 0
  any phene: mean % fraction of young adults exhibiting any phenotype (coiled, jerky-Unc or paralyzed): 46.6667%
C. elegans; 15uM
  atypical locomotion (number of animals): 8 and 13 and 15 and 18 and 17
  coiled (number of animals): 2 and 1 and 0
  no phene (number of animals): 0 and 5 and 3
  paralyzed (number of animals): 10 and 6 and 0 and 1
  any phene: mean % fraction of young adults exhibiting any phenotype (coiled, jerky-Unc or paralyzed): 93.3333%
C. elegans; 60uM
  atypical locomotion (number of animals): 2 and 4 and 6 and 5 and 3
  coiled (number of animals): 8 and 7 and 5 and 4 and 9
  no phene (number of animals): 0
  paralyzed (number of animals): 10 and 9 and 8 and 11
C. elegans
  EC50: 4 ± 1.1 µM
[1]; 0.016 µM
  % effect (motility), DIROIM MF: 0%
[1]; 0.08 µM
  % effect (motility), DIROIM MF: 0%
[1]; 0.4 µM
  % effect (motility), DIROIM MF: 0%
[1]; 2 µM
  % effect (motility), DIROIM MF: 0%
[1]; 10 µM
  % effect (motility), DIROIM MF: 0%
[2]; 10 µM
  % effect (motility), DIROIM L4: 0%
[2]; 50 µM
  % effect (motility), DIROIM L4: 25%
Pristionchus pacificus
  EC50: 52.4 µM
Pristionchus pacificus; conc 3.75
  mean % any phene: 0%
  rep 1 atypical locomotion: 0
  rep 1 coiled: 0
  rep 1 no phene: 20
  rep 1 paralyzed: 0
  rep 2 atypical locomotion: 0
  rep 2 coiled: 0
  rep 2 no phene: 20
  rep 2 paralyzed: 0
  rep 3 atypical locomotion: 0
  rep 3 coiled: 0
  rep 3 no phene: 20
  rep 3 paralyzed: 0
Pristionchus pacificus; conc 15
  mean % any phene: 0%
  rep 1 atypical locomotion: 0
  rep 1 coiled: 0
  rep 1 no phene: 20
  rep 1 paralyzed: 0
  rep 2 atypical locomotion: 0
  rep 2 coiled: 0
  rep 2 no phene: 20
  rep 2 paralyzed: 0
  rep 3 atypical locomotion: 0
  rep 3 coiled: 0
  rep 3 no phene: 20
  rep 3 paralyzed: 0
Pristionchus pacificus; conc 60
  mean % any phene: 92.5%
  rep 1 atypical locomotion: 6 and 10
  rep 1 coiled: 5 and 4
  rep 1 no phene: 5 and 4
  rep 1 paralyzed: 4 and 2
  rep 2 atypical locomotion: 12 and 10
  rep 2 coiled: 5 and 7
  rep 2 no phene: 0
  rep 2 paralyzed: 3
  rep 3 atypical locomotion: 9 and 10
  rep 3 coiled: 8 and 7
  rep 3 no phene: 0
  rep 3 paralyzed: 3

## FC(F)(F)c1cccc(N2CCN(C3CCCCCCC3)CC2)c1 [Nemacol-55]
C. elegans; 3.75uM
  atypical locomotion (number of animals): 5 and 6 and 2 and 3 and 8
  coiled (number of animals): 0
  no phene (number of animals): 15 and 14 and 18 and 17 and 12
  paralyzed (number of animals): 0
  any phene: mean % fraction of young adults exhibiting any phenotype (coiled, jerky-Unc or paralyzed): 26.6667%
C. elegans; 15uM
  atypical locomotion (number of animals): 11 and 15 and 8 and 9 and 19 and 18
  coiled (number of animals): 1 and 0 and 2
  no phene (number of animals): 8 and 4 and 12 and 11 and 1 and 0
  paralyzed (number of animals): 0 and 1
  any phene: mean % fraction of young adults exhibiting any phenotype (coiled, jerky-Unc or paralyzed): 70%
C. elegans; 60uM
  atypical locomotion (number of animals): 18 and 17 and 16 and 11 and 15
  coiled (number of animals): 0 and 2 and 5 and 4 and 3
  no phene (number of animals): 0 and 2
  paralyzed (number of animals): 2 and 1 and 0 and 4
  any phene: mean % fraction of young adults exhibiting any phenotype (coiled, jerky-Unc or paralyzed): 96.6667%
C. elegans
  EC50: 7.9 ± 3.5 µM
[1]; 0.016 µM
  % effect (motility), DIROIM MF: 0%
[1]; 0.08 µM
  % effect (motility), DIROIM MF: 0%
[1]; 0.4 µM
  % effect (motility), DIROIM MF: 0%
[1]; 2 µM
  % effect (motility), DIROIM MF: 0%
[1]; 10 µM
  % effect (motility), DIROIM MF: 0%
[2]; 10 µM
  % effect (motility), DIROIM L4: 15%
[2]; 50 µM
  % effect (motility), DIROIM L4: 35%
Pristionchus pacificus; [3]
  mean % any phene (coiled, jerky-Unc or paralyzed): 5%
Pristionchus pacificus; conc 15, observed at one hour
  mean % any phene (coiled, jerky-Unc or paralyzed): 8.333%
Pristionchus pacificus; conc 60, observed at one hour
  mean % any phene (coiled, jerky-Unc or paralyzed): 59.1667%
Pristionchus pacificus
  EC50: 49.2 ± 6.2 µM
